Non-standard residues stand in square brackets, D forms with d. No end group written: not given here.
Experiments:
CRF-R2β = target: T1, CRF-R2β (Mus musculus, UniProt Q60748); experiment: cAMP stimulation in 293-EBNA cells transfected with CRF-R2β (HM-CRF receptor); format: cell-based; settings: Table 2; for EC50: cAMP, 293-EBNA stable transfectants
T1 construct: Cells were transfected with the full-length cDNA of these receptors; expressed in transfected cells
Experimental: For another assay, two types of cloned CRF receptors were assessed for their responses to the CRF analogs. These were the pituitary-central nervous system (PC)-CRF receptor and the heart muscle (HM)-CRF receptor, also called CRF-R1 and CRF-R2β. Cells were transfected with the full-length cDNA of these receptors. These procedures were performed according to Chang et al., Neuron, 11, pp. 1187-1195 (1993) and Kishimoto et al., Proc. Natl. Acad. Sci. USA, 92, pp. 1108 (1995). cDNAS for the PC-CRF receptor and the HM-CRF receptor were subcloned into expression vector pCEP4 and transfected into 293-EBNA cells. Stable transfectants were incubated with 50 μM 3-isobutylmethyl-1-methylxanthine for 20 minutes at 37° C. and then peptides were added and incubated for another 20 minutes at 37° C. Levels of cAMP were assayed in sextuplicate. Cells transfected with these CRF receptors are sensitive to the cAMP stimulatory effects of CRF. […] As noted previously, the anti-inflammatory potency of these two analogs were also identical.

CRF-R1 = target: T2, CRF-R1 (Rattus norvegicus, UniProt P35353); experiment: cAMP stimulation in 293-EBNA cells transfected with CRF-R1 (PC-CRF receptor); format: cell-based; settings: for EC50: Table 2, cAMP, 293-EBNA stable transfectants
T2 construct: Cells were transfected with the full-length cDNA of these receptors; expressed in transfected cells
T2 sequence (P35353 24-415): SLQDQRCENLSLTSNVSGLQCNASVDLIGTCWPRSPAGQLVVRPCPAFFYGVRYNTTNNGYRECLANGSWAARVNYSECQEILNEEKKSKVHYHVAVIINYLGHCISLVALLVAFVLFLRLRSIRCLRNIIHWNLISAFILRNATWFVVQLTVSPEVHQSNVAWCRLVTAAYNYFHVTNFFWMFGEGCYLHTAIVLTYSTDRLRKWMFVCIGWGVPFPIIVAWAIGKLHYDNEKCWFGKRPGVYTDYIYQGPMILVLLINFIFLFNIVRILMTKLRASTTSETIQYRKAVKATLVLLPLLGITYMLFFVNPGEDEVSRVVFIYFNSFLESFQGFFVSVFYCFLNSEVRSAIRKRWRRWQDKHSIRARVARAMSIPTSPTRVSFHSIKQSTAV
Experimental: These were the pituitary-central nervous system (PC)-CRF receptor and the heart muscle (HM)-CRF receptor, also called CRF-R1 and CRF-R2β. Cells were transfected with the full-length cDNA of these receptors. […] Stable transfectants were incubated with 50 μM 3-isobutylmethyl-1-methylxanthine for 20 minutes at 37° C. and then peptides were added and incubated for another 20 minutes at 37° C. Levels of cAMP were assayed in sextuplicate. Cells transfected with these CRF receptors are sensitive to the cAMP stimulatory effects of CRF.

ACTH release = experiment: Relative ACTH-releasing potency of singly D-substituted ovine CRF analogs (FIG. 1); settings: relative to unmodified oCRF
Source text: Turning to FIG. 1, 37 different ovine CRF analogs were singly substituted with a D-amino acid and screened for suppression of heat-induced edema and relative ACTH-releasing potency. […]

heat-induced edema [1] = settings: intravenous; Wei and Kiang 1989; cited from earlier work
heat-induced edema [2] = experiment: Suppression of heat-induced edema in the anesthetized rat hind paw; format: in vivo
Experimental: The index of anti-inflammatory activity was measured as suppression by heat-induced edema. Briefly, male Sprague-Dawley rats weighing 200-250 g were anesthetized with sodium pentobarbital (60 mg/kg i.p.). Saline (1 ml/kg body weight) or test substances dissolved in saline were injected i.v. via a branch of the femoral vein. Ten minutes after injection, thermal stimulus was applied to the hind paw by immersion of the foot, up to the ankle joint, in 58° C. water for 1 minute. Thirty minutes after heat exposure, animals were killed by overdose with concentrated sodium pentobarbital and both hind paws were removed at the ankle joint and weighed. The degree of heat-induced edema was estimated as the difference between the weights of the heated and unheated paws divided by the weight of the unheated paw. Four to six analogs (N≥3 animals per dose level with 3 to 4 dose levels per analog) were tested on each occasion with concurrent saline controls. The median effective dose (ED50) was calculated according to the method of Litchfield and Wilcoxon (1949).

CRF binding protein = target: T3, CRF binding protein (Homo sapiens, UniProt P24387); experiment: Complex formation of I125-labelled peptide with CRF-binding protein, Sephadex G100 column; settings: radio-iodinated peptide, Sephadex G100 fractions
T3 sequence (P24387 25-322): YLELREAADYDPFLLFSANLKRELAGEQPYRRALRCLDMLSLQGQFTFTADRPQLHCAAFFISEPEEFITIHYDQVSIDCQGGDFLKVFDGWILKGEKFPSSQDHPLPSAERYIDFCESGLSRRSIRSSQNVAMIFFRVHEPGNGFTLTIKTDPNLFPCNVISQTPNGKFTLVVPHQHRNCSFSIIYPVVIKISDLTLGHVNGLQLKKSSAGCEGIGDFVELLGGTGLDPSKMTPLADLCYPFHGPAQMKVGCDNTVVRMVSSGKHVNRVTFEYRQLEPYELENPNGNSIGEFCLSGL
Experimental: Both peptides were radio-iodinated with I^125, incubated with CRF-binding protein, placed on a Sephadex G100 column and the fractions collected.

rat pituitary cells = experiment: In vitro ACTH release from rat pituitary segments, radioimmunoassay (FIG. 2); format: cell-based; settings: ir-ACTH
Experimental: In determining ACTH release, an useful assay system to measure ACTH release by an in vitro assay is where basal or CRF-induced ACTH release is measured in the manner described by Vale et al. ("Assay of Corticotropin Releasing Factor," Methods in Enzymology: Neuroendocrine Peptides, 103, pp. 565-577, Conn. Ed., Academic Press, New York, 1983). The results shown in FIG. 2 were obtained by incubating the test peptides with segments of rat pituitary cells. After incubation the ACTH in the fluid bathing these segments were measured by radioimmunoassay (ir-ACTH) in units of pg of ACTH per mg of pituitary tissue. […] After the addition of CRF, this is increased in a dose-dependent relationship. […] However, the anti-edema potencies between these two peptides were identical.

[3] = i.v. 10 min before 58° C. water for 1 minute, paw weight 30 min after heat, 95% CL in brackets

T1 sequence (Q60748 1-431 isoform Q60748-2): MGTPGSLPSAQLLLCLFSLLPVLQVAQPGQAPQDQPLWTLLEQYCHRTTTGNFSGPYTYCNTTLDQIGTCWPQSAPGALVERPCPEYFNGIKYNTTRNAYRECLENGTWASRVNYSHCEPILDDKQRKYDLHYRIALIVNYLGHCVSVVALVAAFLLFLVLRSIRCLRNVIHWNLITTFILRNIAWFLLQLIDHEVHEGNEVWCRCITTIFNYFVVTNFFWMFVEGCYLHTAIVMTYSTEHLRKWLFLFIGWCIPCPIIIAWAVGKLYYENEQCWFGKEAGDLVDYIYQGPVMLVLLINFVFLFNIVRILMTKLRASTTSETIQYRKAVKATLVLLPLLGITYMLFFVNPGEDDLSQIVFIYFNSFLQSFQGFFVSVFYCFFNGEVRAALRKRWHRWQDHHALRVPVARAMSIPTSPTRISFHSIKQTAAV

CC[C@H](C)[C@H](NC(=O)[C@H](CO)NC(=O)[C@H](CC(C)C)NC(=O)[C@H]1CCCN1C(=O)[C@@H]1CCCN1C(=O)[C@H](CC(=O)O)NC(=O)[C@@H](N)CC(=O)O)C(=O)N[C@@H](CC(=O)O)C(=O)N[C@@H](CC(C)C)C(=O)N[C@H](C(=O)N[C@@H](Cc1ccccc1)C(=O)N[C@@H](Cc1c[nH]cn1)C(=O)N[C@@H](CC(C)C)C(=O)N[C@@H](CC(C)C)C(=O)N[C@@H](CCCNC(=N)N)C(=O)N[C@H](C(=O)N[C@@H](CC(C)C)C(=O)N[C@@H](CC(C)C)C(=O)N[C@@H](CCC(=O)O)C(=O)N[C@@H](CC(C)C)C(=O)N[C@@H](C)C(=O)N[C@@H](CCCNC(=N)N)C(=O)N[C@H](C(=O)N[C@@H](CCC(N)=O)C(=O)N[C@@H](CO)C(=O)N[C@@H](CCC(N)=O)C(=O)N[C@@H](CCCNC(=N)N)C(=O)N[C@@H](CCC(=O)O)C(=O)N[C@@H](CCCNC(=N)N)C(=O)N[C@@H](C)C(=O)N[C@@H](CCC(=O)O)C(=O)N[C@@H](CCC(N)=O)C(=O)N[C@@H](CC(N)=O)C(=O)N[C@@H](CCCNC(=N)N)C(=O)N[C@H](C(=O)N[C@H](C(=O)N[C@@H](Cc1ccccc1)C(=O)N[C@@H](CC(=O)O)C(=O)N[C@@H](CO)C(=O)N[C@H](C(N)=O)C(C)C)[C@@H](C)CC)[C@@H](C)CC)[C@@H](C)O)[C@@H](C)O)[C@@H](C)O [[D-Pro^4]urocortin (rat)]
Increment in Selectivity (CRF-R2β; D-substituted analog versus parent peptide): 2.5 fold | EC50 (CRF-R2β): 1 nM | EC50 (CRF-R1): 0.2 nM

CC[C@H](C)[C@H](NC(=O)[C@H](CC(=O)O)NC(=O)[C@H](CC(C)C)NC(=O)[C@H](CC(C)C)NC(=O)[C@H](CCCCN)NC(=O)[C@H](CCCNC(=N)N)NC(=O)[C@H](CC(N)=O)NC(=O)[C@H](CO)NC(=O)[C@H](Cc1c[nH]cn1)NC(=O)[C@H](C)NC(=O)[C@H](CCC(N)=O)NC(=O)[C@H](CCC(N)=O)NC(=O)[C@H](C)NC(=O)[C@H](CC(C)C)NC(=O)[C@H](CCC(N)=O)NC(=O)[C@H](CC(=O)O)NC(=O)[C@H](C)NC(=O)[C@H](CCCCN)NC(=O)[C@@H](NC(=O)[C@H](CCSC)NC(=O)[C@H](CCC(=O)O)NC(=O)[C@H](CC(C)C)NC(=O)[C@@H](NC(=O)[C@H](CCC(=O)O)NC(=O)[C@H](CCCNC(=N)N)NC(=O)[C@H](CC(C)C)NC(=O)[C@H](CC(C)C)NC(=O)[C@H](Cc1c[nH]cn1)NC(=O)[C@H](Cc1ccccc1)NC(=O)[C@@H](NC(=O)[C@H](CC(C)C)NC(=O)[C@H](CC(=O)O)NC(=O)[C@H](CC(C)C)NC(=O)[C@H](CO)NC(=O)[C@@H](NC(=O)[C@H]1CCCN1C(=O)[C@@H]1CCCN1C(=O)[C@H](CCC(=O)O)NC(=O)[C@H](CCC(N)=O)NC(=O)[C@@H](N)CO)[C@@H](C)CC)[C@@H](C)O)C(C)C)[C@@H](C)O)C(=O)N[C@@H](C)C(N)=O [[D-Pro^5]oCRF]
ACTH-releasing potency retained relative to the unmodified peptide (ACTH release): 8%

CC[C@H](C)[C@H](NC(=O)[C@@H](NC(=O)[C@H](CC(=O)O)NC(=O)[C@H](CC(C)C)NC(=O)[C@H](CC(C)C)NC(=O)[C@H](CC(C)C)NC(=O)[C@H](CCCNC(=N)N)NC(=O)[C@H](CC(N)=O)NC(=O)[C@H](CC(N)=O)NC(=O)[C@H](C)NC(=O)[C@H](C)NC(=O)[C@H](CCC(N)=O)NC(=O)[C@H](CCC(N)=O)NC(=O)[C@H](CCCCN)NC(=O)[C@H](CCC(=O)O)NC(=O)[C@H](CCCCN)NC(=O)[C@H](CCC(=O)O)NC(=O)[C@H](CCC(N)=O)NC(=O)[C@H](CCCCN)NC(=O)[C@H](CCC(=O)O)NC(=O)[C@@H](NC(=O)[C@H](CCC(=O)O)NC(=O)[C@@H](NC(=O)[C@H](CCSC)NC(=O)[C@H](CCCCN)NC(=O)[C@H](CCCNC(=N)N)NC(=O)[C@H](CC(C)C)NC(=O)[C@H](CC(C)C)NC(=O)[C@H](CCC(=O)O)NC(=O)[C@H](CC(C)C)NC(=O)[C@H](CO)NC(=O)[C@H](CC(C)C)NC(=O)[C@H](CC(=O)O)NC(=O)[C@@H](NC(=O)[C@H](CO)NC(=O)[C@@H](NC(=O)[C@@H]1CCCN1C(=O)[C@@H]1CCCN1C(=O)CNC(=O)[C@@H]1CCC(=O)N1)[C@@H](C)CC)[C@@H](C)CC)[C@@H](C)CC)[C@@H](C)CC)[C@@H](C)O)C(N)=O [sauvagine]
ED50 for suppression of heat-induced edema in the rat (heat-induced edema [1]): 0.44 nmol/kg

CC[C@H](C)[C@H](NC(=O)[C@H](CO)NC(=O)[C@H](CC(C)C)NC(=O)[C@@H]1CCCN1C(=O)[C@@H]1CCCN1C(=O)[C@H](CC(=O)O)NC(=O)[C@@H](N)CC(=O)O)C(=O)N[C@@H](CC(=O)O)C(=O)N[C@@H](CC(C)C)C(=O)N[C@H](C(=O)N[C@@H](Cc1ccccc1)C(=O)N[C@@H](Cc1c[nH]cn1)C(=O)N[C@@H](CC(C)C)C(=O)N[C@@H](CC(C)C)C(=O)N[C@@H](CCCNC(=N)N)C(=O)N[C@H](C(=O)N[C@@H](CC(C)C)C(=O)N[C@@H](CC(C)C)C(=O)N[C@@H](CCC(=O)O)C(=O)N[C@@H](CC(C)C)C(=O)N[C@@H](C)C(=O)N[C@@H](CCCNC(=N)N)C(=O)N[C@H](C(=O)N[C@@H](CCC(N)=O)C(=O)N[C@@H](CO)C(=O)N[C@@H](CCC(N)=O)C(=O)N[C@@H](CCCNC(=N)N)C(=O)N[C@@H](CCC(=O)O)C(=O)N[C@@H](CCCNC(=N)N)C(=O)N[C@@H](C)C(=O)N[C@@H](CCC(=O)O)C(=O)N[C@@H](CCC(N)=O)C(=O)N[C@@H](CC(N)=O)C(=O)N[C@@H](CCCNC(=N)N)C(=O)N[C@H](C(=O)N[C@H](C(=O)N[C@@H](Cc1ccccc1)C(=O)N[C@@H](CC(=O)O)C(=O)N[C@@H](CO)C(=O)N[C@H](C(N)=O)C(C)C)[C@@H](C)CC)[C@@H](C)CC)[C@@H](C)O)[C@@H](C)O)[C@@H](C)O [urocortin (rat), reference compound]
EC50 (CRF-R2β): 0.32 nM | EC50 (CRF-R1): 0.15 nM

NDDPPISIDLTFHLLRNMIEMARIENEREQAGLNRKYLDEV-NH2 (C-terminus assumed) [white sucker fish urotensin I]
ED50 for suppression of heat-induced edema in the rat (heat-induced edema [1]): 1.5 nmol/kg

NDDP[dP]ISIDLTFHLLRNMIEMARIENEREQAGLNRKYLDEV-NH2 [[D-Pro^5]white sucker fish urotensin I]
ED50 (95% CL) μg/kg i.v. (heat-induced edema [2]; [3]): 9 (5-17) μg/kg

SEEP[dP]ISLDLTFHLLREVLEMTKADQLAQQAHSNRKLMEII-NH2 [[D-Pro^5, Thr^22, Lys^23, Asp^25]h/rCRF]
complex formation with CRF-binding protein (CRF binding protein): did not form a complex with binding protein | ED50 (95% CL) μg/kg i.v. (heat-induced edema [2]; Table 3, i.v.): 19 µg/kg | ED50 (95% CL) μg/kg i.v. (heat-induced edema [2]; [3]): 19 (9-38) μg/kg

[D-Pro^5 ] human/rat CRF [[D-Pro^5]h/rCRF]
complex formation with CRF-binding protein (CRF binding protein): formed a complex with binding protein | ED50 (95% CL) μg/kg i.v. (heat-induced edema [2]; Table 3, i.v.): 10 µg/kg | ED50 (95% CL) μg/kg i.v. (heat-induced edema [2]; [3]): 10 (3-33) μg/kg | change of potency for CRF-R1 after replacement of Pro5 by D-Pro (CRF-R1; FIG. 3, versus h/rCRF): reduced by about six-fold | decrease of potency for ACTH release versus CRF (rat pituitary cells): at least 10 fold

— US5869450A, “Anti-inflammatory compositions and method with corticotropin-releasing factor analogs” (priority 1996, dated 1999)
